Experimental data as given in publication PMC7977261, “Prebiotic properties of Bacillus coagulans MA-13: production of galactoside hydrolyzing enzymes and characterization of the transglycosylation properties of a GH42 β-galactosidase” (Microbial Cell Factories, 2021).
Values belong to the compound of their own block, whether it stands above or below them.

Tests used:
[1] = target: B. coagulans MA-13 β-galactosidase expressed in E. coli (BcGalB) (Bacillus coagulans MA-13); test: SEC-MALS; S200 16/60 column with Mini DAWN Treos light scattering and QELS; 1 mg protein at 1 mg/ml; 0.5 ml/min; 100 mM sodium phosphate pH 8.0, 1 mM DTT; data not shown
[2] = target: T1, BcGalB (Heyndrickxia coagulans, UniProt G2TH90); test: release of ortho-nitrophenol at […] nm, non-linear regression; assay type: biochemical; conditions: 100 mM sodium citrate pH 5.0, 60 °C
T1 construct: recombinant in E. coli Rosetta(DE3) pLysS, pET28b, C-terminal His-tag, ~75 kDa monomer, hexamer in solution

[3] = target: T1, BcGalB; test: inhibition of ONP-β-gal hydrolysis; assay type: biochemical; conditions: 0-100 mM sugar, 5 min preincubation, standard assay 10 mM ONP-β-gal, 100 mM sodium citrate pH 5.0, 60 °C

stoichiometry N [1]: 6
Compound: B. coagulans MA-13 β-galactosidase expressed in E. coli (BcGalB) (enzyme)

Km [2]: 723 µM
Compound: O=[N+]([O-])c1ccccc1O[C@@H]1O[C@H](CO)[C@H](O)[C@H](O)[C@H]1O [ONP-β-gal]

retained activity at the highest concentration ([3]; highest concentration 100 mM, at least 66% retained): > 66%
Compound: OC1OC[C@@H](O)[C@H](O)[C@H]1O (stereo partly drawn) [D-xylose]

retained activity at the highest concentration [3]: > 66%
Compound: OC1OC[C@@H](O)[C@@H](O)[C@@H]1O (stereo partly drawn) [D-arabinose]
